Where “and” joins values, the source holds several entries; their conditions need not be identical. Equal entries are not always repeated. Some results are limits rather than exact numbers.

For orientation: IC50 means the concentration needed to halve the response being measured.

The subject of the experiment is ATF4 translation (SH-SY5Y-ATF4-NanoLuc cells). Put plainly: ATF4 cell based assay (ATF4 5'-UTR NanoLuc luciferase reporter, Thapsigargin induced stress). To be noted: Thapsigargin 200-300 nM for 14-18 hours, average of two or more experimental runs, read-out: average ATF4 pathway inhibitory activity (IC50). The source says:
The ATF4 reporter assay measures the effect of Thapsigargin induced cellular stress on ATF4 expression. For this reporter assay, a stable cell line was created by transfecting SH-SY5Y cells with a plasmid containing the NanoLuc® luciferase gene fused to the 5′-UTR of ATF4, under the control of the CMV promoter. The ATF4 5′-UTR contains two open reading frames which mediate the cellular stress-dependent translation of the reporter gene. Clones stably expressing the reporter construct were isolated and selected based on the luminescence response to thapsigargin and inhibition of this signal by test compounds. Briefly, SH-SY5Y-ATF4-NanoLuc cells were challenged with Thapsigargin for 14-18 hours to determine the stress effect with or without test compounds.
Cells were propagated in growth media consisting of 90% DMEM F12 (InVitrogen #11320-033), 10% Fetal Bovine Serum (Gibco #10438-026), 5 mM Glutamax (Gibco #35050-061), 5 mM Hepes, (Gibco #15630-080), and 0.5 mg/ml Geneticin (Gibco #10131-027). Cells were prepared for the assay by removing all media from cells, washing the plated cells with phosphate buffered saline, and detached by adding a solution comprised of 10% Tryple express solution (InVitrogen12604-021) and 90% enzyme-free cell dissociation buffer HANKS base (Gibco 13150-016). The trypsin was deactivated by adding assay media comprised of 90% phenol-red free DMEM F12 (InVitrogen, 11039), 10% Fetal Bovine Serum (Gibco #10438-026), (5 mM Glutamax (Gibco #35050-061), 5 mM Hepes, (Gibco #15630-080), and 0.5 mg/ml Geneticin (Gibco #10131-027). Suspended cells were spun down at 300 g for 5 min, the supernatant was removed and the cell pellet was suspended in warm media (30-37° C.) comprised as above but without 10% Fetal Bovine Serum to a concentration of 1e6 cells/mi.
Assay plates were prepared by adding 250 nL of compound stock solution in 100% DMSO to each well, followed by dispensing 20 microliters/well cell suspension to deliver 15-20 k cell/well. Cells were incubated for 1 hour at 37° C. Then, 5 μL of 1.5 μM or 1 μM of Thapsigargin (final concentration: 200-300 nM) was added to each well of cells. Assay plates containing cells were incubated for 14-18 hours at 37° C.
The measurement of luciferase produced by the ATF4 constructs was measured as follows. Aliquots of the Nano-Glo reagent (Nano-Glo® Luciferase Assay Substrate, Promega, N113, Nano-Glo® Luciferase Assay Buffer, Promega, N112 (parts of Nano-Glo® Luciferase Assay System, N1150) were brought to room temperature, the substrate and buffer were mixed according to manufacturer's instructions. The cell plates were equilibrated to room temperature. 25 microliters/well of the mixed Nano-Glo reagent were dispensed into assay wells and pulse spun to settle contents and the plate was sealed with film. The plates were incubated at room temperature for 1 hour before detecting luminescence on an EnVision® plate reader.
(Reporter assays use an easily measured gene product as a stand-in for the process of interest.)
Take `O=C(COc1ccc(Cl)cc1)NCC1CN(C(=O)COc2ccc(Cl)cc2)C1` [Example 1, 2-(4-chlorophenoxy)-N-((1-(2-(4-chlorophenoxy)acetyl)azetidin-3-yl)methyl)acetamide]: the IC50 fell in the range of 100 to 1000 nM.

For `O=C(COc1ccc(Cl)cc1)NCC1CN(C(=O)CCc2ccc(Cl)cc2)C1` [Example 2, 2-(4-chlorophenoxy)-N-((1-(3-(4-chlorophenyl)propanoyl)azetidin-3-yl)methyl)acetamide], the IC50 was 100 to 1000 nM.

In the case of `O=C(COc1ccc(Cl)cc1)NCC1CN(C(=O)C2CC2c2ccc(Cl)cc2)C1` (centres unmarked) [Example 3, 2-(4-chlorophenoxy)-N-((1-(2-(4-chlorophenyl)cyclopropane-1-carbonyl)azetidin-3-yl)methyl)acetamide], the IC50 lay in the range of 100 to 1000 nM.

Consider `O=C(COc1ccc(Cl)cc1)NCCC1CN(C(=O)COc2ccc(Cl)cc2)C1` [Example 4, 2-(4-chlorophenoxy)-N-(2-(1-(2-(4-chlorophenoxy)acetyl)azetidin-3-yl)ethyl)acetamide], for which the half-maximal inhibitory concentration (IC50) was in the range of 100 to 1000 nM.

Take `CC(C)(C)OCC(=O)N1CC(CNC(=O)COc2ccc(Cl)cc2)C1` [Example 5, N-((1-(2-(tert-butoxy)acetyl)azetidin-3-yl)methyl)-2-(4-chlorophenoxy)acetamide]: the 50% inhibitory concentration (IC50) was 1000 to 8000 nM.

As to `O=C(COc1ccc(Cl)cc1)NCC1CN(CCCOc2ccc(Cl)cc2)C1` [Example 6, 2-(4-chlorophenoxy)-N-((1-(3-(4-chlorophenoxy)propyl)azetidin-3-yl)methyl)acetamide], the IC50 is less than 100 nM.

In the case of `O=C(COc1ccc(Cl)cc1)NCC1(F)CN(CCOc2ccc(Cl)cc2)C1` [Example 7, 2-(4-chlorophenoxy)-N-((1-(2-(4-chlorophenoxy)ethyl)-3-fluoroazetidin-3-yl)methyl)acetamide], the half-inhibitory concentration (IC50) lay within 1000 to 8000 nM.

Take `O=C(COc1ccc(Cl)cc1)NCC1(F)CN(CCCOc2ccc(Cl)cc2)C1` [Example 8, 2-(4-chlorophenoxy)-N-((1-(3-(4-chlorophenoxy)propyl)-3-fluoroazetidin-3-yl)methyl)acetamide]: the IC50 was 100 to 1000 nM.

Turning to `O=C(COc1ccc(Cl)cc1)NC1CN(CCCOc2ccc(Cl)cc2)C1` [Example 9, 2-(4-chlorophenoxy)-N-(1-(3-(4-chlorophenoxy)propyl)azetidin-3-yl)acetamide], the IC50 is 100 to 1000 nM and 106 nM.

Regarding `O=C(COc1ccc(Cl)cc1)NCC1(O)CN(CCCOc2ccc(Cl)cc2)C1` [Example 10, 2-(4-chlorophenoxy)-N-((1-(3-(4-chlorophenoxy)propyl)-3-hydroxyazetidin-3-yl)methyl)acetamide], the IC50 was less than 100 nM.

Turning to `O=C(COc1ccc(Cl)cc1)NCC1CN(CCOc2ccc(Cl)cc2)C1` [Example 11, 2-(4-chlorophenoxy)-N-((1-(2-(4-chlorophenoxy)ethyl)azetidin-3-yl)methyl)acetamide], the IC50 was < 100 nM and 78 nM.

Regarding `O=C(COc1ccc(Cl)cc1)NCCC1CN(CCOc2ccc(Cl)cc2)C1` [Example 12, 2-(4-chlorophenoxy)-N-(2-(1-(2-(4-chlorophenoxy)ethyl)azetidin-3-yl)ethyl)acetamide], the half-inhibitory concentration (IC50) was less than 100 nM.

Take `O=C(NCC1CN(CCCOc2ccc(Cl)cc2)C1)C1CCc2cc(Cl)ccc2O1` (centres unmarked) [Example 13, 6-chloro-N-((1-(3-(4-chlorophenoxy)propyl)azetidin-3-yl)methyl)chromane-2-carboxamide]: the IC50 was less than 100 nM.

With `O=C(COc1ccc(Cl)cc1)NCC1CN(CCCc2ccc(Cl)cc2)C1` [Example 14, 2-(4-chlorophenoxy)-N-((1-(3-(4-chlorophenyl)propyl)azetidin-3-yl)methyl)acetamide], the concentration for half-maximal inhibition (IC50) was less than 100 nM.

In the case of `O=C(COc1ccc(Cl)cc1)NCCC1CN(CCCc2ccc(Cl)cc2)C1` [Example 15, 2-(4-chlorophenoxy)-N-(2-(1-(3-(4-chlorophenyl)propyl)azetidin-3-yl)ethyl)acetamide], the half-inhibitory concentration (IC50) fell in the range of 100 to 1000 nM.

Turning to `O=C(COc1ccc(Cl)cc1)NCC1CN(C(=O)OCCc2ccc(Cl)cc2)C1` [Example 16, 4-chlorophenethyl 3-((2-(4-chlorophenoxy)acetamido)methyl)azetidine-1-carboxylate], the IC50 lay within 100 to 1000 nM.

Turning to `O=C(COc1ccc(Cl)cc1)NCC1CN(C(=O)OCCOc2ccc(Cl)cc2)C1` [Example 17, 2-(4-chlorophenoxy)ethyl 3-((2-(4-chlorophenoxy)acetamido)methyl)azetidine-1-carboxylate], the IC50 was less than 100 nM.

Take `O=C(COc1ccc(Cl)cc1)NCC1CN(C(=O)OCc2ccc(Cl)cc2)C1` [Example 18, 4-chlorobenzyl 3-((2-(4-chlorophenoxy)acetamido)methyl)azetidine-1-carboxylate]: the IC50 was less than 100 nM.

Turning to `CC(C)(C)COC(=O)N1CC(CNC(=O)COc2ccc(Cl)cc2)C1` [Example 19, neopentyl 3-((2-(4-chlorophenoxy)acetamido)methyl)azetidine-1-carboxylate], the concentration for half-maximal inhibition (IC50) was 1000 to 8000 nM and 1340 nM.

Consider `O=C(COc1ccc(Cl)cc1)NCC1CN(C(=O)NCc2ccc(Cl)cc2)C1` [Example 20, N-(4-chlorobenzyl)-3-((2-(4-chlorophenoxy)acetamido)methyl)azetidine-1-carboxamide], for which the concentration for half-maximal inhibition (IC50) was in the range of 1000 to 8000 nM.

Turning to `O=C(COc1ccc(Cl)cc1)NCC1CN(C(CCOc2ccc(Cl)cc2)C(=O)O)C1` (centres unmarked) [Example 21, 4-(4-chlorophenoxy)-2-(3-((2-(4-chlorophenoxy)acetamido)methyl)azetidin-1-yl) butanoic acid], the IC50 fell in the range of 100 to 1000 nM.

Regarding `COc1ccc(N2CC(CNC(=O)COc3ccc(Cl)cc3)C2)cc1` [Example 22, 2-(4-chlorophenoxy)-N-((1-(4-methoxyphenyl)azetidin-3-yl)methyl)acetamide], the IC50 lay within 1000 to 8000 nM.

For `O=C(COc1ccc(Cl)cc1)NCC1CN(c2cccnc2)C1` [Example 23, 2-(4-chlorophenoxy)-N-((1-(pyridin-3-yl)azetidin-3-yl)methyl)acetamide], the half-maximal inhibitory concentration (IC50) was 1000 to 8000 nM.
